US12173003B1, “Pyrrolo[3,2-C][2,6]naphthyridine-2-carboxylic acid compounds as CK2 inhibitors” (KING FAISAL UNIVERSITY, priority 2023, dated 2024)

How the values were obtained:
[1] = target: T1, recombinant human CK2 (Homo sapiens, UniProt P68400); experiment: CK2 Kinase Assay (33P-ATP, filter plate); type: biochemical; conditions: final ATP concentration 15 μM, 10 min at 30° C.; read-out: protein kinase CK2 IC50
T1 construct: purchased Millipore
Protocol: CK2 Kinase Assay was conducted using the protocol as described in Pierre F. et al; J. Med. Chem. 2011, 54, 635-654. The tested compounds in aqueous solution were added at a volume of 10 μL to a reaction mixture comprising 10 μL of assay dilution buffer (ADB; 20 mM MOPS, pH 7.2, 25 mM β-glycerol phosphate, 5 mM EGTA, 1 mM sodium orthovanadate, and 1 mM dithiothreitol), 10 μL of substrate peptide (RRRDDDSDDD, dissolved in ADB at a concentration of 1 mM), 10 μL of recombinant human CK2 (RRββ-holoenzyme, 25 ng dissolved in ADB; Millipore). Reactions were initiated by the addition of 10 μL of ATP solution (90% 75 mMMgCl2, 75 μM ATP (final ATP concentration:15 μM) dissolved in ADB; 10% [γ-33P] ATP (stock 1 mCi/100 μL; 3000 Ci/mmol (Perkin-Elmer) and maintained for 10 min at 30° C. The reactions were quenched with 100 μL of 0.75% phosphoric acid and then transferred to and filtered through a phosphor cellulose filter plate (Millipore). After washing each well five times with 0.75% phosphoric acid, the plate was dried under vacuum for 5 min and, following the addition of 15 μL of scintillation fluid to each well, the residual radioactivity was measured using a Wallac luminescence counter. The IC50 values were derived from eight concentrations of test inhibitors.

[2] = system: MCF7 (breast); experiment: In vitro cytotoxic activity MTT assay, MCF7; type: cell-based; conditions: Homo sapiens; MCF7 cells, exposed for 96 hours; read-out: IC50, 50% inhibition of cell proliferation, MCF7 (breast)
Protocol: (§1) Compounds 1-16 were screened for their in vitro cytotoxic activity utilizing a 3-(4,5-dimethyl-thiazol-2-yl)-2,5-diphenyltetrazolium bromide (MTT) assay against selected cancer human cell lines consisting of PC3 (prostate), HCT116 (colon), A375 (melanoma), H1299 (lung), MIAPaCa-2 (pancreas), HL60 (leukemia), MCF7 (breast), MDA-MB-231 (breast) (T. Mosmann, J. Immunol. Meth., 1983, 65, 55-63). The cells were cultured at 37° C. in RMPI1640 medium supplemented with 10% fetal bovine serum, 50 IU/mL penicillin, and 50 μg/mL streptomycin in a 5% CO2 incubator. All cells were sub-cultured 3 times/week by trypsinisation. Viable cells were seeded and allowed to adhere for 12 h before a test drug was added in 96-well plates at an initial density of 1.0×10^5 cells/mL. Tumour cell lines were separately exposed to various concentrations of the tested compounds followed by incubation at a temperature of 37° C. during 96 h inside a medium of fresh RMPI 1640. Cells were subsequently incubated at 37° C. using MTT at 0.5 mg/mL during 4 h. After removal of supernatant, formazan crystals were dissolved in isopropanol and the optical density was measured at 570 nm. CX-4945 was used as a positive control.

[3] = system: HCT116 (colon); experiment: In vitro cytotoxic activity MTT assay, HCT116; type: cell-based; conditions: Homo sapiens, HCT-116; HCT116 cells, exposed for 96 hours; read-out: IC50, 50% inhibition of cell proliferation, HCT116 (colon)
Protocol: as §1

[4] = system: H1299 (lung); experiment: In vitro cytotoxic activity MTT assay, H1299; type: cell-based; conditions: Homo sapiens, NCI-H1299; H1299 cells, exposed for 96 hours; read-out: IC50, 50% inhibition of cell proliferation, H1299 (lung)
Protocol: as §1

[5] = system: PC3 (prostate); experiment: In vitro cytotoxic activity MTT assay, PC3; type: cell-based; conditions: Homo sapiens, PC-3; PC3 cells, exposed for 96 hours; read-out: IC50, 50% inhibition of cell proliferation, PC3 (prostate)
Protocol: as §1

[6] = system: MDA-MB-231 (breast); experiment: In vitro cytotoxic activity MTT assay, MDA-MB-231; type: cell-based; conditions: Homo sapiens; MDA-MB-231 cells, exposed for 96 hours; read-out: IC50, 50% inhibition of cell proliferation, MDA-MB-231 (breast)
Protocol: as §1

[7] = system: HL60 (leukemia); experiment: In vitro cytotoxic activity MTT assay, HL60; type: cell-based; conditions: Homo sapiens, HL-60; HL60 cells, exposed for 96 hours; read-out: IC50, 50% inhibition of cell proliferation, HL60 (leukemia)
Protocol: as §1

[8] = system: A375 (melanoma); experiment: In vitro cytotoxic activity MTT assay, A375; type: cell-based; conditions: Homo sapiens, A-375; A375 cells, exposed for 96 hours; read-out: IC50, 50% inhibition of cell proliferation, A375 (melanoma)
Protocol: as §1

[9] = system: MIAPaCa-2 (pancreas); experiment: In vitro cytotoxic activity MTT assay, MIAPaCa-2; type: cell-based; conditions: Homo sapiens, MIA PaCa-2; MIAPaCa-2 cells, exposed for 96 hours; read-out: IC50, 50% inhibition of cell proliferation, MIAPaCa-2 (pancreas)
Protocol: as §1

T1 sequence (P68400 whole entry): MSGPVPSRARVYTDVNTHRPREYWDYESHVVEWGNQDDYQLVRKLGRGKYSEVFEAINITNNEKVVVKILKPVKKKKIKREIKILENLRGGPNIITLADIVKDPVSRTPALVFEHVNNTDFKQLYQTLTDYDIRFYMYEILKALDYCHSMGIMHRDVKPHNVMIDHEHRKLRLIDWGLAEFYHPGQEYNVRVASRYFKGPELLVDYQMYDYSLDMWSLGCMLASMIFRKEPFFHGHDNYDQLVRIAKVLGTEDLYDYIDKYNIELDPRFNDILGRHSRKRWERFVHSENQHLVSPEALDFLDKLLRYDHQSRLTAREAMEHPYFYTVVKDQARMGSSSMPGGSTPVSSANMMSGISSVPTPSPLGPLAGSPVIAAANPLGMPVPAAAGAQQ
T1 sequence (P67870 whole entry partner): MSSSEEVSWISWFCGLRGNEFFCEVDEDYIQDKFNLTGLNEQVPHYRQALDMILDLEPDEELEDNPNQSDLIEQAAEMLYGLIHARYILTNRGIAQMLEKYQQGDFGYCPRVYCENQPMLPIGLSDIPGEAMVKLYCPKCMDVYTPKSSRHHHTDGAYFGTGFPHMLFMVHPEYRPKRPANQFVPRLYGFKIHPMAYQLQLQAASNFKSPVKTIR

`O=C(O)c1cc2nc(Nc3cccc(Cl)c3)c3ccncc3c2[nH]1` [Compound 1, 5-((3-chlorophenyl)amino)-1H-pyrrolo[3,2-c][2,6]naphthyridine-2-carboxylic acid] was tested, and the IC50 [1] was 21 nM, the IC50 [2] was 3500 nM and the IC50 [3] was 1100 nM. For the same compound, the IC50 [4] was 1500 nM, the IC50 [5] was 2400 nM and the IC50 [6] was 3900 nM. It also gave an IC50 [7] of 2200 nM, an IC50 [8] of 2600 nM and an IC50 [9] of 900 nM.
